In patent EP0304063B1, “Quinoline type mevalonolactones” (NISSAN CHEMICAL INDUSTRIES LTD., priority 1987, dated 1989):

system: not listed separately; assay: Test D: Acute toxicity; conditions: mouse, in vivo, po; orally administered 1000 mg/kg, 0.5% CMC suspension, ICR male mice, after seven days
Experimental: A 0.5% CMC suspension of a test compound was orally administered to ICR male mice (group of three mice). The acute toxicity was determined based on the mortality after seven days. With compound I-57, I-58, I-59, I-511, I-512, I-513, I-514, I-515, I-517 and I-523 of the present invention, the mortality was 0% even when they were orally administered in an amount of 1000 mg/kg.

| SMILES | mortality at 168 h |
| --- | --- |
| CC(C)c1nc2ccccc2c(-c2ccc(C(F)(F)F)cc2)c1/C=C/C(O)CC(O)CC(=O)O (stereo not drawn) [Compound I-513] | 0% |
| CC(C)c1nc2ccccc2c(-c2ccccc2F)c1/C=C/C(O)CC(O)CC(=O)O (stereo not drawn) [Compound I-57] | 0% |
| CC(C)c1nc2ccccc2c(-c2ccc(Cl)cc2)c1/C=C/C(O)CC(O)CC(=O)O (stereo not drawn) [Compound I-59] | 0% |
| Cc1ccc2c(-c3ccccc3)c(/C=C/C(O)CC(O)CC(=O)O)c(C(C)C)nc2c1 (stereo not drawn) [Compound I-58] | 0% |
| Cc1cc(-c2c(/C=C/C(O)CC(O)CC(=O)O)c(C(C)C)nc3ccccc23)ccc1F (stereo not drawn) [Compound I-514] | 0% |
| CCc1nc2ccccc2c(-c2ccc(F)cc2)c1/C=C/C(O)CC(O)CC(=O)O (stereo not drawn) [Compound I-517] | 0% |
| O=C(O)CC(O)CC(O)/C=C/c1c(-c2ccccc2)nc2ccc(Cl)cc2c1-c1ccccc1 (stereo not drawn) [Compound I-523] | 0% |
| Cc1cc(C)cc(-c2c(/C=C/C(O)CC(O)CC(=O)O)c(C(C)C)nc3ccccc23)c1 (stereo not drawn) [Compound I-515] | 0% |
| CC(C)c1nc2ccc(Cl)cc2c(-c2ccccc2Cl)c1/C=C/C(O)CC(O)CC(=O)O (stereo not drawn) [Compound I-512] | 0% |
| Cc1ccc(-c2c(/C=C/C(O)CC(O)CC(=O)O)c(C(C)C)nc3ccccc23)cc1 (stereo not drawn) [Compound I-511] | 0% |

system: cholesterol biosynthesis in vivo; assay: Test C: Inhibition of cholesterol biosynthesis in vivo; parameters: species or system Male Sprague-Dawley rats; conditions: oral administration of 0.05 mg/kg, relative to the control group, rats

| SMILES | percent decrease of counts |
| --- | --- |
| O=C(O)CC(O)CC(O)/C=C/c1c(C2CC2)nc2ccccc2c1-c1ccc(F)cc1 (stereo not drawn) [Compound I-520] | 55% |

same assay, conditions: oral administration of 10 mg/kg, relative to the control group, rats

| SMILES | percent decrease of counts |
| --- | --- |
| CC[C@H](C)C(=O)O[C@H]1C[C@H](O)C=C2C=C[C@H](C)[C@H](CC[C@@H](O)C[C@@H](O)CC(=O)O)[C@H]21 [CS-514, reference compound] | 55% |
